The record followed here is publication PMC9977398, “Next-generation membrane-active glycopeptide antibiotics that also inhibit bacterial cell division” (Chemical Science, 2023).

For this data set, the system named is B. subtilis. Briefly: Membrane permeabilization assay, propidium iodide uptake. The data set is classed as cell-based. The settings on record: exponentially growing B. subtilis, 10 μM, PI uptake. The procedure:
The kinetics of permeabilization of membranes of MRSA and B. subtilis by the compounds was measured by the uptake of propidium iodide (PI). […] When the membrane integrity is compromised, it enters the cell and fluoresces upon binding to the DNA. Both VanQbiph (4) and VanQAmC10 (8) permeabilized the membrane in a concentration-dependent manner (Fig. S2 ^†). […] They caused gradual permeabilization against the stationary phase cells of MRSA as well (Fig. 2F). The extent of permeabilization was higher for VanQAmC10 (8) than VanQbiph (4) against both the log-phase and stationary-phase bacteria similar to that observed during depolarisation.
50 μL of serially diluted compound was added into 96 well microtiter plates. Freshly drawn, heparanized human blood was centrifuged down to obtain the erythrocytes and re-suspended to 5 vol % in PBS (pH 7.4). […] 100 μL of the supernatant from each well were transferred into fresh microtiter plates, and A540 was measured.
% haemolysis = (A - A0)/(Atotal -A0) × 100, where A is the absorbance of the test well, A 0 the absorbance of the negative controls (without compound), and A total the absorbance of 100 % hemolysis wells (with Triton X -100), all at 540 nm. […]
2 h post incubation with dye, the absorbance was measured at 570 nm using 600 nm as […]
The bactericidal activity of the compounds was evaluated with the time kill kinetics assay. […]

Regarding `CCCCCCCCCCNC(=O)C[N+](C)(C)CCCNC(=O)C1NC(=O)C2NC(=O)C(NC(=O)C3NC(=O)C(CC(N)=O)NC(=O)C(NC(=O)C(CC(C)C)NC)C(O)c4ccc(c(Cl)c4)Oc4cc3cc(c4OC3OC(CO)C(O)C(O)C3OC3CC(C)(N)C(O)C(C)O3)Oc3ccc(cc3Cl)C2O)c2ccc(O)c(c2)-c2c(O)cc(O)cc21` (stereo not shown) [VanQAmC10 (8)], the “time to membrane permeabilization” value is not above 4 min.
